# Measured values reported in patent publication US11351185B2, “Use of isovalerylspiramycins as anti-cancer agents to inhibit metastasis” (priority 2020, dated 2022).
# “Also recorded” adds a separate entry of the source.
# How the values were obtained:
# U2OS cell line = assay: R-loop and EdU staining in U2OS cells; type: cell-based, Human; conditions: 6 hours
# Text: In order to assess ISP I's effect within the nuclear compartment, the inventors evaluated DNA-RNA R-loop formation within ISP I-treated Human Bone Osteosarcoma Epithelial Cells (U2OS cell line). R-loops are DNA-RNA hybrid structures composed of a displaced single-stranded DNA hybridized with the nascent RNA transcript. Santo-Pereira et al., Nat. Rev. Genet. 16: 583 (2015). […] Teng et al., Nature communications 9: 4115 (2018).
# U2OS cells obtained from ATCC were transfected with plasmid containing RNaseH1 construct mutated at D210N (Addgene #111904) and WKKD (Addgene #111905). Stable monoclonal cells were selected with hygromycin.
# EdU and R-loop staining for U2OS cells was conducted as follows: U2OS cells were incubated with EdU for 20 min and washed with a brief PBS wash. These cells were then pre-extracted in PBS-T buffer (0.2% Triton X-100 in 1×PBS, phenylmethylsulphonylfluoride [PMSF], protease inhibitor cocktail (Sigma, P8340) and phosphatase inhibitor cocktail (Roche, P4906845001)) for 3 min on ice and washed with a brief PBS wash. Pre-extracted cells were fixed using 2.0% paraformaldehyde (PFA) solution in PBS. EdU staining was performed according to the manufacturer's instructions. Primary antibody staining was performed as follows: anti-V5-tag (Santacruz, sc-271926, 1:250 dilution). Secondary antibody staining was performed as follows: Alexa 568 conjugated anti-mouse IgG (1:500, ThermoFisher Scientific). A Zeiss LSM710 confocal microscopy was used for imaging. Images where scored in ZenBlue software by counting non-nucleolar R-loops foci, where nucleoli were masked based on intensity and size of R-loop staining and number of foci counted in the rest of the nucleus.
# [1] = tested on: SELH-deficient LN229 cells; assay: CCK8 assay in SELH-deficient (CRISPR/CAS9) LN229 cells; type: cell-based; conditions: LN229 SELH knock out
# Text: SELH knockout LN229 cell lines and B16 were generated using the CRISPR/Cas9 technique described by Shalem et al., Science 343: 84 (2014). The gDNA for targeting SELH was designed as follows: Oligo 1, 5′-[…]-3′; Oligo 2, 5′-[…]-3′; the gDNA for targeting mouse SELH was designed as follows: Oligo 1, 5′-[…]-3′; Oligo 2, 5′-[…]-3′, and subcloned into Cas9 carrying vector (pX330). The two resultant plasmids and puromycin-expressing vector (pPGK-puro) were co-transfected at a ratio of 1:1:1 into LN229 or B16 cells using Lipofectamine 2000 (Invitrogen). Twenty-four hours later, the transfected cells were subjected to puromycin (Sigma) at 1 μg/mL for 7 days. One week after selection, the surviving clones were expanded, followed by extraction of total protein for standard western blotting analysis.
# Cell viability was measured by Cell Counting Kit-8 (CCK-8, Dojindo Molecular Technologies, Tokyo, Japan). Cells were seeded in 96-well plates at a density of 3×10^3 cells/well and cultured for 24 hours before treatment with ISP I at different concentration. […] The absorbance in each well at a wavelength of OD450 was detected by the Synergy H1 microplate reader, a product of BioTek (Winooski, Vt. USA).
# [2] = tested on: SELH-deficient 786-O and RCC4 cells; assay: CCK8 assay in SELH-deficient (CRISPR/CAS9) RCC cells; type: cell-based; conditions: 786-O and RCC4 SELH knock out
# Description: Cell viability was measured by Cell Counting Kit-8 (CCK-8, Dojindo Molecular Technologies, Tokyo, Japan). Cells were seeded in 96-well plates at a density of 3×10^3 cells/well and cultured for 24 hours before treatment with ISP I at different concentration. After treatment for a gradient ISP I concentration from 0 to 20 μg/ml for 48 hours, while control groups were only treated in PBS solution, 10 μl of CCK-8 solution were added to each well and cells were incubated for an additional 2 hours. The absorbance in each well at a wavelength of OD450 was detected by the Synergy H1 microplate reader, a product of BioTek (Winooski, Vt. USA).
# SELH = target: T1, SELH (Homo sapiens, UniProt Q8IZQ5); assay: Cellular thermal shift assay (CETSA) / thermo-stability assay; type: binding; parameters: endogenous in cells; host or cells: LN229, 786-O; conditions: vs DMSO
# T1 sequence (Q8IZQ5 1-122): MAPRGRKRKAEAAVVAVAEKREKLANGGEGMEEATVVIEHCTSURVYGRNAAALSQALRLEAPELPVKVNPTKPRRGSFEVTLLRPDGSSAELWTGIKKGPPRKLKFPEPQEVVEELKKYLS
# Text: (§1) Next, the inventors used a thermo-stability assay to confirm SELH was targeted by ISP I in LN229 and 786-O cell lines. The principle of the assay is based on altered protein thermal stabilization/destabilization due to ligand binding in living cells. […] (FIG. 5B and FIG. 6A). To verify further the specificity of ISP I's targeting of SELH, the inventors designed a surface plasmon resonance assay to assess the interaction of ISP I with SELH synthesized in bacteria.
# CETSA experiments were performed to determine the ISP I-related ligand induced shifts. Intact and live cells in a 10-cm dish were harvested, washed and resuspended in PBS with protease inhibitor cocktail. Protein of the cells was extracted by freeze-thaw more than three times, using liquid nitrogen. The supernatant was centrifuged at 20, 000 g for 20 min at 4° C. Then the samples were aliquoted to several groups incubated with different concentrations of ISP I for 1 hour. After that, samples were aliquoted into PCR tubes and thereafter heated at gradient temperature ranging from 40° C. to 80° C. for 3 min. Then the samples were centrifuged again and resolved using 4-12% SDS-PAGE followed by western blot experiments.
# [3] = target: T2, SELH (Sec44→Cys44) synthesized in bacteria (Homo sapiens, UniProt Q8IZQ5, U44C); assay: Surface plasmon resonance (SPR) assay, SELH; type: binding; conditions: 25° C.
# T2 construct: made in house
# Text: as §1
# The affinities constant (KD) and kinetics (ka and kd) of ISP I binding to SELH (Sec44→Cys44) were assayed using Biacore 8K (GE Healthcare, Sweden), all at 25° C. […] Coupling conditions were determined by protein isoelectric points. […]
# To determine the binding affinity between ISP I and SELH (Sec44→Cys44), a series of ISP I dilutions was analyzed by single-cycle kinetics. […] The ISP I at various gradient concentrations and one zero concentration (running buffer) flowed over the immobilized SELH, with 120 s for binding, followed by disassociation for 120 s, and the obtained response units (RUs) were recorded. The RU values were collected, and the binding affinity data were calculated by kinetic models (1:1 interaction) within Biacore 8K Evaluation Software. The equilibrium dissociation constant (KD) was calculated to evaluate the ability of ISP I to interact with SELH.
# T2 sequence (Q8IZQ5 with tags, fused parts or gaps U44C): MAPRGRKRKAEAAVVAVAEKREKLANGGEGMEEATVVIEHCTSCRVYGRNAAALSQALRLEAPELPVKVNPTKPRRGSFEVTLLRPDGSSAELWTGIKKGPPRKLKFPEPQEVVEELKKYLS
smiles,measurement,setting,value
"COC1C(O)CC(=O)OC(C)CC=CC=CC(OC2CCC(N(C)C)C(C)O2)C(C)CC(CC=O)C1OC1OC(C)C(OC2CC(C)(O)C(OC(=O)CC(C)C)C(C)O2)C(N(C)C)C1O (stereo not drawn) [ISP I, 4″-isolvalerylspiramycin I]",EdU incorporation (DNA replication),U2OS cell line,reduced EdU (DNA replication marker) incorporation into DNA in a dose-dependent manner
same,R-loop formation,U2OS cell line,increased R-loop accumulation
same,EdU incorporation (DNA replication),U2OS cell line; listed as ISP 1,reduction in EdU incorporation
same,R-loop formation,U2OS cell line; listed as ISP 1,increase of R-Loops formation
same,sensitivity of SELH-deficient cells vs wild type (CCK8),[1],resistance to ISP I; also recorded: SELH-deficient cells were resistant to ISP I treatment
same,sensitivity of SELH-deficient cells vs wild type (CCK8),[2],resistance to ISP I; also recorded: SELH-deficient cells were resistant to ISP I treatment
same,thermal stabilisation of SELH (western blot),SELH; 786-O cells,ISP I-protected SELH was observed along with a rise in temperature; also recorded: protective effect of ISP I on SELH was present over a range of increasing temperatures
same,thermal stabilisation of SELH (western blot),SELH; LN229 cells,ISP I-protected SELH was observed along with the rise of temperature; also recorded: protective effect of ISP I on SELH was present over a range of increasing temperatures
same,binding to SELH (SPR),[3],tightly binds to SELH
